Assay results as given in patent US6696407B1, “Huntington's disease treatment comprising administering aldose reductase inhibitors to increase striatal CNTF” (The Regents of the University of California, priority 1997, dated 2004).
Entries after “also recorded” stand apart in the source; their conditions may differ.

B1: CNTF: member of the neuropoietic cytokine family, a protein of 200 amino acids (protein, UniProt P26441 1-200, looked up)
Ciliary neurotrophic factor: MAFTEHSPLTPHRRDLCSRSIWLARKIRSDLTALTESYVKHQGLNKNINLDSADGMPVASTDQWSELTEAERLQENLQAYRTFHVLLARLLEDQQVHFTPTEGDFHQAIHTLLLQVAAFAYQIEELMILLEYKIPRNEADGMPINVGDGGLFEKKLWGLKVLQELSQWTVRSIHDLRFISSHQTGIPARGSHYIANNKKM

Legend:
CNTF = experiment: Striatal CNTF levels by ELISA; format: in vivo, rat; details: adult rats, oral 50 mg/kg/day for two months
Description: CNTF protein was determined with an ELISA that utilizes a monoclonal capture antibody which recognizes a non-C-terminal epitope on both rat and human CNTF (Regeneron, Tarrytown, N.Y.). The captured CNTF was recognized by a polyclonal rabbit anti-rCNTF reporter antibody. An alkaline phosphatase-tagged goat anti-rabbit IgG was used to generate the signal. In practice, 96-well Immulon plates were coated with capture antibody overnight, then blocked and washed. After overnight incubation of standards and samples, plates were washed and reporter antibody added. Following final washes, the reaction was developed using the GIBCO BRL ELISA amplification system substrate and amplifier. The reaction was stopped with 0.5 N H2SO4 and the plates read at two wavelengths (490 nm and 650 nm).
ARIs Toirestat and Ponalrestat were orally administered to adult rats at a dose of 50 mg/kg/day for two months as described in Example 1 and in Mizisin et al (1997) Diabetes 46: 647-652. For each rat, the left and right striatum were dissected and combined for homogenization in phosphate buffered saline. CNTF levels in extract preparations were then measured by ELISA, as described in Example 1. Four rats served as controls, and five rats each received Tolrestat and Ponalrestat. Five ELISA assays were run for each rat and one mean value derived for each rat.

[1] = Dittrich et al. (1994); cited from earlier work

Row | Molecule | Increase in striatal CNTF activity level versus control group (CNTF) | Plasma half-life [1] [min]
1 | COc1ccc2c(C(=S)N(C)CC(=O)O)cccc2c1C(F)(F)F [Tolrestat, N-[[6-methoxy-5-(trifluoromethyl)-1-naphthalenyl]thioxomethyl]-N-methylglycine] | significantly increased; also recorded: approximately two-fold | –
2 | B1 | – | 2.9
